Test results from ChEMBL document CHEMBL5614457, “New Directions in Antibacterial, Anticancer, and Gene Editing Therapies” (ACS Med Chem Lett, 2024).

Molecular target: Protein cereblon/B-cell lymphoma 6 protein (Homo sapiens) (UniProt Q96SW2+P41182)
Test: PROTAC activity at CRBN/N-terminal-HibiT tagged BCL6 in human HT-1080 cells transfected with pLV-UBC-N-HiBiT- BCL6-PGK-puro assessed as degradation of protein by measuring ratio of trough concentration of protein in cell compared to the concentration of protein before the cell contact with compound (Ymin) incubated for 5 hrs by luminescence based NANO-Glo HIBiT lytic detection assay

Row | SMILES | Activity [%]
1 | C[C@@H](C1CCN(c2cccc3c(C4CCC(=O)NC4=O)nn(C)c23)CC1)N1CCN(c2ncc(Cl)c(Nc3ccc4c(c3)c3c(c(=O)n4C)OCC(F)(F)[C@H](C4CC4)N3)n2)CC1 (some centres not stated) | < 30
2 | Cn1nc(C2CCC(=O)NC2=O)c2cccc(N3CCC(OC4CCN(c5ncc(Cl)c(Nc6ccc7c(c6)c6c(c(=O)n7C)OCC(F)(F)[C@H](C7CC7)N6)n5)CC4)CC3)c21 (some centres not stated) | < 30
3 | Cn1c(=O)c2c(c3cc(Nc4nc(N5CCN(CC6CCN(c7cccc8c7C(=O)N(C7CCC(=O)NC7=O)C8=O)CC6)CC5)ncc4Cl)ccc31)N[C@@H](C1CC1)C(F)(F)CO2 (some centres not stated) | < 30
4 | Cn1nc(C2CCC(=O)NC2=O)c2cccc(C3CCN(CC4CCN(c5ncc(F)c(Nc6ccc7c(c6)c6c(c(=O)n7C)OCC(F)(F)[C@H](C7CC7)N6)n5)CC4)CC3)c21 (some centres not stated) | < 30
5 | Cn1nc(C2CCC(=O)NC2=O)c2cccc(N3CCC(CN4CCN(c5ncc(F)c(Nc6ccc7c(c6)c6c(c(=O)n7C)OCC(F)(F)[C@H](C7CC7)N6)n5)CC4)CC3)c21 (some centres not stated) | < 30
6 | Cn1nc(C2CCC(=O)NC2=O)c2cccc(N3CCN(CC4CCN(c5ncc(Cl)c(Nc6ccc7c(c6)c6c(c(=O)n7C)OCC(F)(F)[C@H](C7CC7)N6)n5)CC4)CC3)c21 (some centres not stated) | < 30
7 | Cn1nc(C2CCC(=O)NC2=O)c2cccc(N3CCC(CN4CCN(c5cc(Nc6ccc7c(c6)c6c(c(=O)n7C)OCC(F)(F)[C@H](C7CC7)N6)c(Cl)cn5)CC4)CC3)c21 (some centres not stated) | < 30
8 | Cn1nc(C2CCC(=O)NC2=O)c2cccc(N3CCC(CN4CCN(c5ncc(Cl)c(Nc6ccc7c(c6)c6c(c(=O)n7C)OCC(F)(F)[C@H](C7CC7)N6)n5)CC4)CC3)c21 (some centres not stated) | < 30
9 | Cn1nc(C2CCC(=O)NC2=O)c2ccc(N3CCC(CN4CCN(c5ncc(F)c(Nc6ccc7c(c6)c6c(c(=O)n7C)OCC(F)(F)[C@H](C7CC7)N6)n5)CC4)CC3)cc21 (some centres not stated) | 30
10 | Cn1nc(C2CCC(=O)NC2=O)c2cccc(N3CCC(CN4CCN(c5ncc(Br)c(Nc6ccc7c(c6)c6c(c(=O)n7C)OCC(F)(F)[C@H](C7CC7)N6)n5)CC4)CC3)c21 (some centres not stated) | < 30
11 | Cn1nc(C2CCC(=O)NC2=O)c2ccc(N3CCC(CN4CCN(c5cc(Nc6ccc7c(c6)c6c(c(=O)n7C)OCC(F)(F)[C@H](C7CC7)N6)c(Cl)cn5)CC4)CC3)cc21 (some centres not stated) | < 30
12 | Cn1nc(C2CCC(=O)NC2=O)c2cccc(C3CCN(CC4CCN(c5ncc(Cl)c(Nc6ccc7c(c6)c6c(c(=O)n7C)OCC(F)(F)[C@H](C7CC7)N6)n5)CC4)CC3)c21 (some centres not stated) | < 30
